Experimental data: patent US20260152779A1, “GENETICALLY ENGINEERED FUMONISIN SENSITIVE YEAST” (FFOQSI GMBH, priority 2022, published 2026)
Where two headings read alike, the source gives them in different places.

Columns and labels:
wild type yeast = test: growth inhibition of wild type yeast by FB1; assay type: cell-based, Saccharomyces cerevisiae; details: at a concentration of 1000 μM FB1 or more
Excerpt: Growth rates and growth inhibition can be determined by any method well known in the art, such as, but not limited to, determining cell number, using e.g. a hemocytometer, determining cell viability, e.g. using methylene blue staining, or determining relative growth calculated as the resultant optical density ratio of toxin treated cultures to untreated controls. Also yeast dry weight can be determined or conductance change can be measured during yeast growth, employing direct and indirect methods.

YRU94ML = test: spotting on YPD agar plates with crude FB1, strain YRU94ML; assay type: cell-based, Saccharomyces cerevisiae; details: crude fumonisin stock (FB1+FB2+FB3) containing >70% FB1, 30° C., 5 days
Description: (§1) In a further setting, the sensitive yeast strains YRU74, YRU94ML and YTKT33 were grown in YPD (1% yeast extract, 2% peptone, 2% glucose) overnight alongside the original resistant YPH500 strain. The next day, they were rediluted to an OD600 of 0.1. After reaching exponential growth (>0.3) they were diluted to an OD of 0.1 and diluted further (1:10 and 1:100) for spottings on YPD agar plates alongside containing different concentrations of the crude fumonisin stock (FB1+FB2+FB3, measured via LC-MS/MS) containing >70% FB1. The concentrations used for the prepared FB1 plates were calculated based on the measured FB1. 3 μl of each strain/dilution was pipetted onto the plates and left to grow at 30° C. for 5 days. The photos of these plates are shown above. […] Three different dilutions of each strain were spotted on every plate. […] Both YRU94ML and YTKT33 growth is inhibited at a concentration of 250 μM FB1.

YTKT33 [1] = test: spotting on YPD agar plates with crude FB1, strain YTKT33; assay type: cell-based, Saccharomyces cerevisiae; details: crude fumonisin stock (FB1+FB2+FB3) containing >70% FB1, 30° C., 5 days
Description: as §1

YTKT33 [2] = test: spotting on SC-URA agar plates with FB1, strain YTKT33; assay type: cell-based, Saccharomyces cerevisiae; details: SC-URA agar plates, 87,88% pure FB1, empty pYes2-PTEF1 vector, 30° C., 5 days
Description: In a further setting, sensitive yeast strains YRU74, YRU94ML, YTKT33 and the original yeast strain YPH500 were transformed with the empty pYes2-PTEF1 vector containing the marker URA3, so that they could grow on Synthetic Complete media lacking uracil (SC-URA). They were grown in SC-URA overnight and rediluted to an OD600 of 0.1 in the morning. After reaching exponential growth (OD600>0.3), they were diluted again for spottings on plates containing 87,88% pure FB1. 3 μl of each strain/dilution was pipetted onto the plates and left to grow at 30° C. for 5 days. The photos of these plates are shown above. […] Three spots were spotted on each plate for every strain.

Arabidopsis = details: bioassay e.g. 10 days; cited from earlier work
[3] = system: brine shrimp (Artemia salina); details: cited from earlier work
primary rat hepatocytes = details: read-out: acute cytotoxicity (IC50 values); cited from earlier work
human HepG2 cells = details: read-out: acute cytotoxicity (IC50); cited from earlier work
YPH500 = test: paper disk inhibition zone assay, wild-type strain YPH500; assay type: cell-based, Saccharomyces cerevisiae
YTKT33 [4] = test: FB1 resistance conferred by candidate genes expressed in YTKT33 on SC-URA FB1 plates; assay type: cell-based, Saccharomyces cerevisiae; details: SC-URA plates with different FB1 concentrations, spottings OD600 0.1, 0.01, 0.001
Excerpt: The plasmids described by Janevska et al., 2020, were kindly provided by Dr. Vito Valiante. Plasmid pYes2-PTEF1 (=empty vector, TEF1 promoter) was used to express different genes assumed to confer resistance against FB1. Candidate genes were coned behind the TEF1 promoter into that plasmid and subsequently transformed into the sensitive yeast strain YTKT33 for testing.
YOR1 (with endogenous promoter on an episomal (multicopy 2 μm) plasmid) and FvCER1 (positive control, resistance conferring ceramide synthase from Fusarium verticillioides) were used as controls. Sphingopyxis sp.

With Fumonisin B1 [FB1] the “growth inhibition of wild type yeast” value (wild type yeast) was “does not show significant growth inhibition”, the “FB1 concentration at which growth is inhibited” value (YRU94ML) was 250 µM and the “FB1 concentration at which growth is inhibited” value (YTKT33 [1]) was 250 µM. The “FB1 concentration at which growth is inhibited” value (YTKT33 [2]) was roughly 100 µM, the “FB1 concentration at which seed germination and root development is already strongly inhibited” value (Arabidopsis) was 1 µM and the IC50 ([3]; 24 h incubation) was roughly 10 µM. For the same molecule, the IC50 ([3]; 48 h incubation) was 1.7 µM, the IC50 (primary rat hepatocytes) was 2000 µM and the IC50 (human HepG2 cells) was 399 µM.

With fumonisin the “development of an inhibition zone” value (YPH500) was “did not result in the development of an inhibition zone”.

B1: YOR1: yeast ABC transporter gene with endogenous promoter on an episomal multicopy plasmid, used as control (protein, UniProt P53049 1-1477, looked up)
Oligomycin resistance …: MTITVGDAVSETELENKSQNVVLSPKASASSDISTDVDKDTSSSWDDKSLLPTGEYIVDRNKPQTYLNSDDIEKVTESDIFPQKRLFSFLHSKKIPEVPQTDDERKIYPLFHTNIISNMFFWWVLPILRVGYKRTIQPNDLFKMDPRMSIETLYDDFEKNMIYYFEKTRKKYRKRHPEATEEEVMENAKLPKHTVLRALLFTFKKQYFMSIVFAILANCTSGFNPMITKRLIEFVEEKAIFHSMHVNKGIGYAIGACLMMFVNGLTFNHFFHTSQLTGVQAKSILTKAAMKKMFNASNYARHCFPNGKVTSFVTTDLARIEFALSFQPFLAGFPAILAICIVLLIVNLGPIALVGIGIFFGGFFISLFAFKLILGFRIAANIFTDARVTMMREVLNNIKMIKYYTWEDAYEKNIQDIRTKEISKVRKMQLSRNFLIAMAMSLPSIASLVTFLAMYKVNKGGRQPGNIFASLSLFQVLSLQMFFLPIAIGTGIDMIIGLGRLQSLLEAPEDDPNQMIEMKPSPGFDPKLALKMTHCSFEWEDYELNDAIEEAKGEAKDEGKKNKKKRKDTWGKPSASTNKAKRLDNMLKDRDGPEDLEKTSFRGFKDLNFDIKKGEFIMITGPIGTGKSSLLNAMAGSMRKTDGKVEVNGDLLMCGYPWIQNASVRDNIIFGSPFNKEKYDEVVRVCSLKADLDILPAGDMTEIGERGITLSGGQKARINLARSVYKKKDIYLFDDVLSAVDSRVGKHIMDECLTGMLANKTRILATHQLSLIERASRVIVLGTDGQVDIGTVDELKARNQTLINLLQFSSQNSEKEDEEQEAVVAGELGQLKYESEVKELTELKKKATEMSQTANSGKIVADGHTSSKEERAVNSISLKIYREYIKAAVGKWGFIALPLYAILVVGTTFCSLFSSVWLSYWTENKFKNRPPSFYMGLYSFFVFAAFIFMNGQFTILCAMGIMASKWLNLRAVKRILHTPMSYIDTTPLGRILNRFTKDTDSLDNELTESLRLMTSQFANIVGVCVMCIVYLPWFAIAIPFLLVIFVLIADHYQSSGREIKRLEAVQRSFVYNNLNEVLGGMDTIKAYRSQERFLAKSDFLINKMNEAGYLVVVLQRWVGIFLDMVAIAFALIITLLCVTRAFPISAASVGVLLTYVLQLPGLLNTILRAMTQTENDMNSAERLVTYATELPLEASYRKPEMTPPESWPSMGEIIFENVDFAYRPGLPIVLKNLNLNIKSGEKIGICGRTGAGKSTIMSALYRLNELTAGKILIDNVDISQLGLFDLRRKLAIIPQDPVLFRGTIRKNLDPFNERTDDELWDALVRGGAIAKDDLPEVKLQKPDENGTHGKMHKFHLDQAVEEEGSNFSLGERQLLALTRALVRQSKILILDEATSSVDYETDGKIQTRIVEEFGDCTILCIAHRLKTIVNYDRILVLEKGEVAEFDTPWTLFSQEDSIFRSMCSRSGIVENDFENRS
With B1 the “resistance to FB1 conferred by the expressed gene” value (YTKT33 [4]) was “weak resistance”.
